# The source made the active and inactive calls.
# Legend:
# [1] = target: SUMO E1/E2 (Homo sapiens, UniProt P63279+Q9UBE0+Q9UBT2); experiment: SAR analysis of SUMOylation using HTRF in an in-Vitro dose response assay. [Related pubchem assays (depositor defined):AID2006, AID2011, AID2018, AID2069, AID2658]; type: functional
# [2] = target: Lysine-specific demethylase 4C (Homo sapiens, UniProt Q9H3R0); experiment: GASC-1 (JMJD2C) histone demethylase inhibitors, dose response, biochemical, DELFIA europium, cherry-picked samples (AID 488835); type: functional
# [3] = target: Lysine-specific demethylase 4A (Homo sapiens, UniProt O75164); experiment: JMJD2A histone demethylase inhibitors, dose response, selectivity assay for GASC-1 inhibitor project, biochemical, DELFIA europium, cherry-picked samples (AID 488840)
# Sequence of Lysine-specific demethylase 4A (O75164 whole entry): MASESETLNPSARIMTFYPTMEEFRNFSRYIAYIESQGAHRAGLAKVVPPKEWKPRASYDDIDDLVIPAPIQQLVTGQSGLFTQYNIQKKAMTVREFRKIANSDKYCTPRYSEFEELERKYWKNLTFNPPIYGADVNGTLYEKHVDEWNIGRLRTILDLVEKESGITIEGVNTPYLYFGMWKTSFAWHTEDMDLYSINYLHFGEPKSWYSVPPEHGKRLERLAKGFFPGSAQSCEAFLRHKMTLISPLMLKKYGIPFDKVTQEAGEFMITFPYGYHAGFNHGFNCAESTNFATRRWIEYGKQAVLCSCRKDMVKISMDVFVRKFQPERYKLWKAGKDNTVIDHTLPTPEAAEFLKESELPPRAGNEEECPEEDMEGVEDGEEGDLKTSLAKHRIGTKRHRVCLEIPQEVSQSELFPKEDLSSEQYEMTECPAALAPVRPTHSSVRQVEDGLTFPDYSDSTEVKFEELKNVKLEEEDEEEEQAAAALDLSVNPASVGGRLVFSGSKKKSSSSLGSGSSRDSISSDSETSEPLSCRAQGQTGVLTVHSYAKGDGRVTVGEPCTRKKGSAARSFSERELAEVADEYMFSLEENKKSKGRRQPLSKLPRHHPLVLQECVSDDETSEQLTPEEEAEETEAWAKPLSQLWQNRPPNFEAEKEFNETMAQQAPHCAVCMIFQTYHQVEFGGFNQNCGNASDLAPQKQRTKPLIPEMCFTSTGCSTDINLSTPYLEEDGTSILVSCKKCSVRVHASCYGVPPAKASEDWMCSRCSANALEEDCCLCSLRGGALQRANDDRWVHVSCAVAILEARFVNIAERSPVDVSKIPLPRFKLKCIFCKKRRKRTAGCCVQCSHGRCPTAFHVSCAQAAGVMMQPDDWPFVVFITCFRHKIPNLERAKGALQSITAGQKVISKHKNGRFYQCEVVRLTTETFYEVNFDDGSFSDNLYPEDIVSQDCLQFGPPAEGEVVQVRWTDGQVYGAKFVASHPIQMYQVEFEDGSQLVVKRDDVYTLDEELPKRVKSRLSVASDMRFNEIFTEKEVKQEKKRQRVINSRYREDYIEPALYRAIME
# [4] = target: Tyrosyl-DNA phosphodiesterase 2 (Homo sapiens, UniProt O95551); experiment: human TDP2 enzyme inhibitors, dose response, biochemical, epi absorbance, IC50 (AID 743297)
# Sequence of Tyrosyl-DNA phosphodiesterase 2 (O95551 whole entry): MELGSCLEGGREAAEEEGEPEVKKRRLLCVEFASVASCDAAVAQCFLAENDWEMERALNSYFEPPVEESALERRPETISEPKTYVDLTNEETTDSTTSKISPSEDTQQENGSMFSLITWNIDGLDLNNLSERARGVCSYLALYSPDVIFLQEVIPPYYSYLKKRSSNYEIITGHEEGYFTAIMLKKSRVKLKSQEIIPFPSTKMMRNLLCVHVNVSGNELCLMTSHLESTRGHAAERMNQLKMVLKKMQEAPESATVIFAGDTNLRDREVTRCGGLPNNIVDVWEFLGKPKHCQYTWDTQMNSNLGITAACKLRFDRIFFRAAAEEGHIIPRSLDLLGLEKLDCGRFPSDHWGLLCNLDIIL
# [5] = target: DNA dC->dU-editing enzyme APOBEC-3G (Homo sapiens, UniProt Q9HC16); experiment: Dose Response confirmation of small molecule APOBEC3G DNA Deaminase Inhibitors via a fluorescence-based single-stranded DNA deaminase assay. [Related pubchem assays (depositor defined):AID493012, AID493028]; type: functional
# [6] = target: Sphingosine 1-phosphate receptor 1 (Homo sapiens, UniProt P21453); experiment: Late stage counterscreen assay for S1P4 antagonists: Fluorescence dose response cell-based screening assay for antagonists of the Sphingosine 1-Phosphate Receptor 1 (S1P1). [Related pubchem assays (depositor defined):AID1510, AID1524, AID1692, AID1853, AID2332, AID489009, AID489017]; type: functional
# Sequence of Sphingosine 1-phosphate receptor 1 (P21453 whole entry): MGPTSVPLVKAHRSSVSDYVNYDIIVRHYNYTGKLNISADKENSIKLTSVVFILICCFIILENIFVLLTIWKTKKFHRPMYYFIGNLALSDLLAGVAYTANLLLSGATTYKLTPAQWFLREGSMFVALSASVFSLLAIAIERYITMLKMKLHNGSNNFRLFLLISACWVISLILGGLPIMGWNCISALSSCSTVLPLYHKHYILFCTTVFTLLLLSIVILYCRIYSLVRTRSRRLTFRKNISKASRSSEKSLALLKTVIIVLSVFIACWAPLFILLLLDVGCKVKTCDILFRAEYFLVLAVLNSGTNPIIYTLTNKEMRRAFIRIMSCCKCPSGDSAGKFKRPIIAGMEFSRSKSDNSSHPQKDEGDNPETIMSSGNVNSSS
# [7] = target: T1, Sphingosine 1-phosphate receptor 4 (Homo sapiens, UniProt O95977); experiment: S1P4 receptor antagonists, human, late-stage follow-up, cell-based, fluorescence, synthesized analogues (AID 2346); type: functional
# T1 sequence (O95977 whole entry): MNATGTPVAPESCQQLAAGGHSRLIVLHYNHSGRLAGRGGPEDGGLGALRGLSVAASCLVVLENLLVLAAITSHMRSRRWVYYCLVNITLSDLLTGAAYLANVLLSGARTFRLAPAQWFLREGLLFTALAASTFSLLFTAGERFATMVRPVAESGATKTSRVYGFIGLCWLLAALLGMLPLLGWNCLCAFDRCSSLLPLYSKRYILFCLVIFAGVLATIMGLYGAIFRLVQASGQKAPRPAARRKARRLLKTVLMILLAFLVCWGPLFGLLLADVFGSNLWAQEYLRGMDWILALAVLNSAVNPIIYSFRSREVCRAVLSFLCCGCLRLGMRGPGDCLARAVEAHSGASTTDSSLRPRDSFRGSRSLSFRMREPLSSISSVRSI
# [8] = target: Sphingosine 1-phosphate receptor 3 (Homo sapiens, UniProt Q99500); experiment: Late stage counterscreen assay for S1P4 antagonists: Fluorescence dose response cell-based screening assay for antagonists of the Sphingosine 1-Phosphate Receptor 3 (S1P3). [Related pubchem assays (depositor defined):AID1510, AID1524, AID1692, AID1853, AID2332, AID489009, AID489017]; type: functional
# [9] = target: Sphingosine 1-phosphate receptor 2 (Homo sapiens, UniProt O95136); experiment: Late stage counterscreen assay for S1P4 antagonists: Fluorescence dose response cell-based screening assay for antagonists of the Sphingosine 1-Phosphate Receptor 2 (S1P2). [Related pubchem assays (depositor defined):AID1510, AID1524, AID1692, AID1853, AID2332, AID489009, AID489017]; type: functional
# Sequence of Sphingosine 1-phosphate receptor 2 (O95136 whole entry): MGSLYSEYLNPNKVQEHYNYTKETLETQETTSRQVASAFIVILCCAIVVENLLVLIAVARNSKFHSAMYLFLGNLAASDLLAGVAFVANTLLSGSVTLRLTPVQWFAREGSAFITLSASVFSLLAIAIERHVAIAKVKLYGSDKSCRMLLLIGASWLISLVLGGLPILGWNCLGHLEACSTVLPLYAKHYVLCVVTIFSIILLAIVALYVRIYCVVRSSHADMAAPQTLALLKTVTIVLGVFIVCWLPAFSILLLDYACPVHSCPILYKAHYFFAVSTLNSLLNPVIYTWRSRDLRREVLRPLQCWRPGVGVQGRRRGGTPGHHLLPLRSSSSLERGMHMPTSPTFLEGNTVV
# [10] = target: Sphingosine 1-phosphate receptor 5 (Homo sapiens, UniProt Q9H228); experiment: Late stage counterscreen assay for S1P4 antagonists: Fluorescence dose response cell-based screening assay for antagonists of the Sphingosine 1-Phosphate Receptor 5 (S1P5). [Related pubchem assays (depositor defined):AID1510, AID1524, AID1692, AID1853, AID2332, AID489009, AID489017]; type: functional
# Sequence of Sphingosine 1-phosphate receptor 5 (Q9H228 whole entry): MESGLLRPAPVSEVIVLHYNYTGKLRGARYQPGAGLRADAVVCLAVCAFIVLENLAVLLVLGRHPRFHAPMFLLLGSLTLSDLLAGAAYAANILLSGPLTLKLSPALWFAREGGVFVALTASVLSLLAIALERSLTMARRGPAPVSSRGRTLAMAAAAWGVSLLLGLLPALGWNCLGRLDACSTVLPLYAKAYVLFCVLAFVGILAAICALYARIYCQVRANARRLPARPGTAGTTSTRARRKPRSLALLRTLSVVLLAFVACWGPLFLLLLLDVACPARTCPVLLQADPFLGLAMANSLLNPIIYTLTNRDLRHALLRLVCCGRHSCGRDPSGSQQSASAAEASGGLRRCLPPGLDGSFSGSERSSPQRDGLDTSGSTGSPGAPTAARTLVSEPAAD
# [11] = cytotoxicity in MIN6 insulinoma cells, dose response, cytotoxicity control, cell-based, mouse insulinoma (AID 2122); type: functional;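 note: confirmatory high-throughput counterscreen run to flag cytotoxic compounds; mouse MIN-6 beta cells carrying an insulin promoter eGFP reporter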
# [12] = HepG2 cell cytotoxicity, dose response, cytotoxicity control for Shn3 inhibitor project, CellTiter-Glo, cherry-picked (AID 624134); type: functional, cell-based
# [13] = insulin promoter down-regulators in MIN6 cells, imaging, high-content screening, mouse beta cells (AID 1628); type: functional
# [14] = Shn3 3'UTR reporter inhibitors, dose response, cell-based, Clone20 osteoblasts, firefly luciferase, cherry-picked (AID 624132); type: functional;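 note: firefly luciferase luminescence from reporter carrying the Shn3 3'UTR in osteoblasts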
# [15] = control 3'UTR Renilla luciferase suppression, dose response, counter-screen for Shn3 inhibitor project, cell-based, Clone20-Shn3RL, cherry-picked (AID 624133); type: functional
# [16] = target: T2, Mannose-6-phosphate isomerase (Homo sapiens, UniProt P34949); experiment: Confirmation of compounds inhibiting phosphomannose isomerase (PMI) via a fluorescence intensity assay using a high concentration of mannose 6-phosphate. [Related pubchem assays (depositor defined):AID1209, AID1220, AID1545, AID1553, AID1620]
# T2 sequence (P34949 whole entry): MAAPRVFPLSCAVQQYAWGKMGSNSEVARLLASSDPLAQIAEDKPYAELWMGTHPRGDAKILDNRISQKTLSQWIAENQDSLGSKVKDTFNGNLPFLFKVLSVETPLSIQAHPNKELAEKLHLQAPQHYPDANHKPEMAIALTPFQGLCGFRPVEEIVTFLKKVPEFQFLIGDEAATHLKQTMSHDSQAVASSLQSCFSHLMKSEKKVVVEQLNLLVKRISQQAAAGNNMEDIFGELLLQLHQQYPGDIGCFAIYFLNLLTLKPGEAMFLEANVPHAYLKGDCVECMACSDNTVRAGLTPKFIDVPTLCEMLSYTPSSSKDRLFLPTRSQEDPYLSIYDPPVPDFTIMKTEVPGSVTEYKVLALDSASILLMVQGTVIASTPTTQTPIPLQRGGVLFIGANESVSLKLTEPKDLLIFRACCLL
# [17] = target: Phosphomannomutase 2 (Homo sapiens, UniProt O15305); experiment: Counter screen SAR assay for PMM2 inhibitors via a fluorescence intensity assay. [Related pubchem assays (depositor defined):AID1545, AID1574]
# Sequence of Phosphomannomutase 2 (O15305 whole entry): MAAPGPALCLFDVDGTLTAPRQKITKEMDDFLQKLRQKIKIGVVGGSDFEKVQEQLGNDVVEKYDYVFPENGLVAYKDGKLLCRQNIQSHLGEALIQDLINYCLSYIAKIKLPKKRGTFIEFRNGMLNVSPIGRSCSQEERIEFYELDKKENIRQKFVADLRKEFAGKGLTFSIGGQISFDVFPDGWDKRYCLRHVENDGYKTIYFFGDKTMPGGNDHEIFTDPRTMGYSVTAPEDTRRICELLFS
# [18] = target: T2, Mannose-6-phosphate isomerase; experiment: PMI enzyme inhibitors, confirmation, biochemical, fluorescence intensity (AID 1535)
# [19] = target: Phosphoethanolamine/phosphocholine phosphatase (Homo sapiens, UniProt Q8TCT1); experiment: SAR assay for compounds that inhibit PHOSPHO1. [Related pubchem assays (depositor defined):AID1545, AID1565, AID1574]
# Sequence of Phosphoethanolamine/phosphocholine phosphatase (Q8TCT1 whole entry): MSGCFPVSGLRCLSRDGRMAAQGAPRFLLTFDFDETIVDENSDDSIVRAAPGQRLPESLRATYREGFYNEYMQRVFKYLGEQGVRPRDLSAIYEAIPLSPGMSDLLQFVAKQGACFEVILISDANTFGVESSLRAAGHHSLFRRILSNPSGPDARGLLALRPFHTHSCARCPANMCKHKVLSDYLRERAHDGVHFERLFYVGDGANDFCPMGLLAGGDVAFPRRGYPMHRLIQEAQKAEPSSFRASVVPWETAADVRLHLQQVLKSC
# [20] = target: T3, Cytochrome P450 1A2 (Homo sapiens, UniProt P05177);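 note: PubChem cytochrome P450 panel assay, CYP1A2 panel member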
# T3 sequence (P05177 whole entry): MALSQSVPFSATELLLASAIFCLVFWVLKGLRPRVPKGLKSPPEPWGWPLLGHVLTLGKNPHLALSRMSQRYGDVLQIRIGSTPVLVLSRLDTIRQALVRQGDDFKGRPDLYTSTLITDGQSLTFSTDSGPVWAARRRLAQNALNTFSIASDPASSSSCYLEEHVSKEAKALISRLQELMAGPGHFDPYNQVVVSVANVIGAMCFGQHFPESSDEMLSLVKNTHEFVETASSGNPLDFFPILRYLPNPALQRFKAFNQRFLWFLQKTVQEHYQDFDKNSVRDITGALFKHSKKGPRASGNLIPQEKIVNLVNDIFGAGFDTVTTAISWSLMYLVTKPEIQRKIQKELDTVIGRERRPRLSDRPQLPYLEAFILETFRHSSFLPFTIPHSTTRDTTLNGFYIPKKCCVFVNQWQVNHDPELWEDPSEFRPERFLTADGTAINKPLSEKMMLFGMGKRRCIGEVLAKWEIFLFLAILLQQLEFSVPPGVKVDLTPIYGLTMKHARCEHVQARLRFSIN
# [21] = target: T4, CAAX prenyl protease 2 (Saccharomyces cerevisiae S288c, UniProt Q03530); type: biochemical
# T4 sequence (Q03530 whole entry): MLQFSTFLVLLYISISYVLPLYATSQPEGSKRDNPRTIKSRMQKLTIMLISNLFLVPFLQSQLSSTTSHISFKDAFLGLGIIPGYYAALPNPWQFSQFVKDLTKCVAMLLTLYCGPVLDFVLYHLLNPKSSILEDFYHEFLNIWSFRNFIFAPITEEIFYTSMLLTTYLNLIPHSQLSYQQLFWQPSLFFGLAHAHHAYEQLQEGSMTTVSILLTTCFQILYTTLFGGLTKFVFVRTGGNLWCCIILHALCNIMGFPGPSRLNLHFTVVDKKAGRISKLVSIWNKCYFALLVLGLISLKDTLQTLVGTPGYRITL
# [22] = target: CAAX prenyl protease 1 (Saccharomyces cerevisiae S288c, UniProt P47154); experiment: Ste24 protease inhibitors, dose response, biochemical, S. cerevisiae, plate reader, cherry-pick (AID 488815)
# Sequence of CAAX prenyl protease 1 (P47154 whole entry): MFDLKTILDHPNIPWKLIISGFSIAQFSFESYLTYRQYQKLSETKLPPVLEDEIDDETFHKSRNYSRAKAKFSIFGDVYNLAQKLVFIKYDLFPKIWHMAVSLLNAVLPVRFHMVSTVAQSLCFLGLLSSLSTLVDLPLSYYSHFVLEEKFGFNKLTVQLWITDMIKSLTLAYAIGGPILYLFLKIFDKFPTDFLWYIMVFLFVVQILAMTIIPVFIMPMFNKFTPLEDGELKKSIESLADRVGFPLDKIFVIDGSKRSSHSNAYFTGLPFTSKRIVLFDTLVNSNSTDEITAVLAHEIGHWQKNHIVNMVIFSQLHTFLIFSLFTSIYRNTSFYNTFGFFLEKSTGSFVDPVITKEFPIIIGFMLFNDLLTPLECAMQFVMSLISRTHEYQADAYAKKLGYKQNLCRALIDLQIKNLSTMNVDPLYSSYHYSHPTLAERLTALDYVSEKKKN
# [23] = target: Trypsin (Sus scrofa, UniProt P00761); experiment: porcine trypsin inhibitors, dose response, selectivity assay for Rce1 protease inhibitor project, biochemical, quenched peptide fluorescence, cherry-pick (AID 488789)
# Sequence of Trypsin (P00761 whole entry): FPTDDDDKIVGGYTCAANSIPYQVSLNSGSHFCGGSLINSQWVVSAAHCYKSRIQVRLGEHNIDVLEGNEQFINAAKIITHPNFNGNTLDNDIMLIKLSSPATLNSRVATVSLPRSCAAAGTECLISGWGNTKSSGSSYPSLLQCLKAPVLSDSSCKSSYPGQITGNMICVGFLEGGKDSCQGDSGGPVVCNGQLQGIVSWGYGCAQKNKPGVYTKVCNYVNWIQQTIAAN
# Sequence of SUMO E1/E2 (Q9UBE0 whole entry): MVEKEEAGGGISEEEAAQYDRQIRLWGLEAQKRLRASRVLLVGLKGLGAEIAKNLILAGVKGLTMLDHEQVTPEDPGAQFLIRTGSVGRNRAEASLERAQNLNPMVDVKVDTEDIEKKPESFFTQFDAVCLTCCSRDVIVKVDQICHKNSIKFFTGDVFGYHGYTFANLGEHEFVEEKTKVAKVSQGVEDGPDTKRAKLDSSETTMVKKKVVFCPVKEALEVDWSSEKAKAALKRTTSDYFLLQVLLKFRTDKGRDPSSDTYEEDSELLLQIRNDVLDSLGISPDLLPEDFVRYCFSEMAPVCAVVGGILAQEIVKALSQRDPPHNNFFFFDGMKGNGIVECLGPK
# Sequence of SUMO E1/E2 (Q9UBT2 whole entry): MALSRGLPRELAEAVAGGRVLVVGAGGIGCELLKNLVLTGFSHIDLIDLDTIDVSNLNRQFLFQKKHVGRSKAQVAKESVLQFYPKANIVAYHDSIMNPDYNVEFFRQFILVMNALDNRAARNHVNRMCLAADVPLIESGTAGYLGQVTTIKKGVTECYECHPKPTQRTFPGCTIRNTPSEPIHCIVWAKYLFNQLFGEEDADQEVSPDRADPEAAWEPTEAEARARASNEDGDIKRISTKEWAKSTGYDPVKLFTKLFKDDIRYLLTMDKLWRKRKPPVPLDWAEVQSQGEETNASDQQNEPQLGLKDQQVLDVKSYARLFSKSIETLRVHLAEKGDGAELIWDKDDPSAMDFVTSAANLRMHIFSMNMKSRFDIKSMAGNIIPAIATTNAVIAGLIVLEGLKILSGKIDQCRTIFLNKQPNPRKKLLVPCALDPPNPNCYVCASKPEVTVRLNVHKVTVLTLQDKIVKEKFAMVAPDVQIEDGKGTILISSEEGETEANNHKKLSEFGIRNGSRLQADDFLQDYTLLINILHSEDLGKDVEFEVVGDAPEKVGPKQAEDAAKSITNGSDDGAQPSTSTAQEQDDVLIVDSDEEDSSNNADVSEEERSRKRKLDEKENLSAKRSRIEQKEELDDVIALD
# Sequence of SUMO E1/E2 (P63279 whole entry): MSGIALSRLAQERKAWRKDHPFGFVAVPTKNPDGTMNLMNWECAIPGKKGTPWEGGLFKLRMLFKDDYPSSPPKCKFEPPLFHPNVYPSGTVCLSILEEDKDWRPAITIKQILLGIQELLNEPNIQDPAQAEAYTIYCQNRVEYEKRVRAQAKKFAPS
smiles,measurement,setting,value
Sc1nnc(-c2cc(-c3ccccc3)[nH]n2)n1N=Cc1c(Cl)cccc1Cl,IC50,[1],82 µM (active)
O=C1NC(=O)C(Sc2ccccc2[N+](=O)[O-])C(=O)N1,AC50,[2],1.23 µM (active)
same,AC50,[3],2.28 µM (active)
same,IC50,[4],36.3 µM (inactive)
same,IC50,[5],52.7 µM (active)
CCOc1ccc(OC)cc1-c1ccc(C(=O)Nc2c(C)cccc2CC)o1,IC50,[6],> 25 µM (inactive)
same,IC50,[7],0.414 µM (active)
same,IC50,[8],> 25 µM (inactive)
same,IC50,[9],> 25 µM (inactive)
same,IC50,[10],19.2 µM (inactive)
COc1ccccc1NC(=O)Cc1nn(C)c(=O)c2ccccc12,IC50,[11],2.11 µM (active)
same,AC50,[12],58.6 µM (active)
same,IC50,[13],3.14 µM (active)
same,AC50,[14],1.97 µM (active)
same,AC50,[15],2.05 µM (active)
Cc1ccc(C)c(N2Cc3ccccc3C2=O)c1,IC50,[16],> 100 µM (inactive)
same,IC50,[17],> 100 µM (inactive)
same,IC50,[18],> 100 µM (inactive)
same,IC50,[19],> 100 µM (inactive)
N#CC[N+]1(Cc2ccccn2)CCCC1.O=S(=O)([O-])c1ccccc1,AC50,[20],inactive
COc1cccc2c(O)c(C(=O)O)cnc12,AC50,[21],36 µM (active)
same,AC50,[22],6.84 µM (active)
same,AC50,[23],64.1 µM (active)

# — ChEMBL document CHEMBL1201862, “PubChem BioAssay data set” (2004)
